Source: patent publication US10131652B2, “Pyrimidinyloxy benzene derivatives as herbicides” (E. I. DU PONT DE NEMOURS AND COMPANY, priority 2014, dated 2018)

Assays:
Assay in all cases: Test D pre-/postemergence plant response
Format in all cases: in vivo
[1] = system: johnsongrass (Sorghum halepense)
How it was run: (§1)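 Two application timings were run together: preemergence onto seeded loam–sand pots, and postemergence onto 1- to 4-leaf plants (2 to 18 cm) in peat/vermiculite medium with starter nutrients. Formulation was a non-phytotoxic solvent with surfactant. Ratings, 0 to 100, were made visually versus controls after 13 to 15 greenhouse days.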

[2] = system: barnyardgrass (Echinochloa crus-galli)
How it was run: as §1

[3] = system: oilseed rape (Brassica napus)
How it was run: as §1

[4] = system: Italian ryegrass (Lolium multiflorum)
How it was run: as §1

[5] = system: yellow nutsedge (Cyperus esculentus)
How it was run: as §1

[6] = system: waterhemp (common waterhemp, Amaranthus rudis)
How it was run: as §1

[7] = system: soybean (Glycine max)
How it was run: as §1

[8] = system: winter wheat (Triticum aestivum)
How it was run: as §1

[9] = system: pigweed (Amaranthus retroflexus)
How it was run: as §1

[10] = Postemergence, 16 g ai/ha, scale 0 to 100 (0 no effect, 100 complete control)
[11] = Postemergence, 31 g ai/ha, scale 0 to 100 (0 no effect, 100 complete control)
[12] = Postemergence, 62 g ai/ha, scale 0 to 100, 0 no effect, 100 complete control
[13] = Postemergence, 125 g ai/ha, scale 0 to 100, 0 no effect, 100 complete control
[14] = Preemergence, 16 g ai/ha, scale 0 to 100 (0 no effect, 100 complete control)
[15] = Preemergence, 31 g ai/ha, scale 0 to 100 (0 no effect, 100 complete control)
[16] = Preemergence, 62 g ai/ha, scale 0 to 100 (0 no effect, 100 complete control)

Fc1cccc(Oc2ncc(Br)cn2)c1-c1cc(C(F)F)on1 [Compound 118]
Johnsongrass plant response rating [1, 10]: 5 | Johnsongrass plant response rating [1, 11]: 5 | Plant response rating, Johnsongrass [1, 12]: 10 | Plant response rating, Johnsongrass [1, 13]: 45 | Plant response rating (scale 0 to 100), Johnsongrass ([1]; Preemergence, 125 g ai/ha): 100 | Plant response rating, Johnsongrass [1, 14]: 10 | Plant response rating, Johnsongrass [1, 15]: 70 | Plant response rating, Johnsongrass [1, 16]: 85 | Barnyardgrass plant response rating [2, 10]: 10 | Barnyardgrass plant response rating [2, 11]: 20 | Plant response rating, Barnyardgrass [2, 12]: 20 | Plant response rating, Barnyardgrass [2, 13]: 30 | Plant response rating (scale 0 to 100), Barnyardgrass ([2]; Preemergence, 62 g ai/ha): 100 | Plant response rating (scale 0 to 100), Barnyardgrass ([2]; Preemergence, 125 g ai/ha): 100 | Plant response rating, Barnyardgrass [2, 14]: 10 | Plant response rating, Barnyardgrass [2, 15]: 60 | Oilseed Rape plant response rating [3, 10]: 5 | Oilseed Rape plant response rating [3, 11]: 30 | Plant response rating, Oilseed Rape [3, 12]: 60 | Plant response rating, Oilseed Rape [3, 13]: 95 | Plant response rating (scale 0 to 100), Oilseed Rape ([3]; Preemergence, 125 g ai/ha): 100 | Plant response rating, Oilseed Rape [3, 14]: 85 | Plant response rating, Oilseed Rape [3, 15]: 98 | Plant response rating, Oilseed Rape [3, 16]: 100 | Ryegrass, Italian plant response rating [4, 10]: 0 | Ryegrass, Italian plant response rating [4, 11]: 0 | Plant response rating, Ryegrass, Italian [4, 12]: 5 | Plant response rating, Ryegrass, Italian [4, 13]: 5 | Plant response rating (scale 0 to 100), Ryegrass, Italian ([4]; Preemergence, 125 g ai/ha): 60 | Plant response rating, Ryegrass, Italian [4, 14]: 0 | Plant response rating, Ryegrass, Italian [4, 15]: 5 | Plant response rating, Ryegrass, Italian [4, 16]: 65 | Nutsedge, Yellow plant response rating [5, 10]: 5 | Nutsedge, Yellow plant response rating [5, 11]: 5 | Plant response rating, Nutsedge, Yellow [5, 12]: 10 | Plant response rating, Nutsedge, Yellow [5, 13]: 10 | Plant response rating (scale 0 to 100), Nutsedge, Yellow ([5]; Preemergence, 125 g ai/ha): 65 | Plant response rating, Nutsedge, Yellow [5, 14]: 0 | Plant response rating, Nutsedge, Yellow [5, 15]: 0 | Plant response rating, Nutsedge, Yellow [5, 16]: 15 | Waterhemp plant response rating [6, 10]: 85 | Waterhemp plant response rating [6, 11]: 90 | Plant response rating, Waterhemp [6, 12]: 95 | Plant response rating, Waterhemp [6, 13]: 98 | Plant response rating (scale 0 to 100), Waterhemp ([6]; Preemergence, 125 g ai/ha): 100 | Plant response rating, Waterhemp [6, 14]: 100 | Plant response rating, Waterhemp [6, 15]: 100 | Plant response rating, Waterhemp [6, 16]: 100 | Soybean plant response rating [7, 10]: 75 | Soybean plant response rating [7, 11]: 60 | Plant response rating, Soybean [7, 12]: 60 | Plant response rating, Soybean [7, 13]: 90 | Plant response rating (scale 0 to 100), Soybean ([7]; Preemergence, 125 g ai/ha): 95 | Plant response rating, Soybean [7, 14]: 80 | Plant response rating, Soybean [7, 15]: 75 | Plant response rating, Soybean [7, 16]: 80 | Wheat plant response rating [8, 10]: 0 | Wheat plant response rating [8, 11]: 0 | Plant response rating, Wheat [8, 12]: 0 | Plant response rating, Wheat [8, 13]: 5 | Plant response rating (scale 0 to 100), Wheat ([8]; Preemergence, 125 g ai/ha): 5 | Plant response rating, Wheat [8, 14]: 0 | Plant response rating, Wheat [8, 15]: 0 | Plant response rating, Wheat [8, 16]: 0 | Pigweed plant response rating [9, 10]: 80 | Pigweed plant response rating [9, 11]: 95 | Plant response rating, Pigweed [9, 12]: 95 | Plant response rating, Pigweed [9, 13]: 98 | Plant response rating (scale 0 to 100), Pigweed ([9]; Preemergence, 125 g ai/ha): 100 | Plant response rating, Pigweed [9, 14]: 100 | Plant response rating, Pigweed [9, 15]: 100 | Plant response rating, Pigweed [9, 16]: 100
